Values quoted from earlier work, collected in patent US20160069160A1, “TREATMENT OF MICROBIAL-INFLUENCED CORROSION” (TRICAN WELL SERVICE LTD., priority 2014, published 2016).

System: microbes

| Molecule | efficacy at low pH (below pH 5) | concentration required to be effective at pH 7 relative to pH 9 (pH 7 vs pH 9) [times higher] | effect of pH on microbial control |
| --- | --- | --- | --- |
| O=CCCCC=O [glutaraldehyde] | significantly reduced | 4 to 6 |  |
| tetrakis(hydroxymethyl)phosphonium sulfate [THPS] |  |  | unaffected by pH |
